Test results: the NIST ThermoML archive (doi:10.1016/j.jct.2017.06.013)

Test: xn = mol fraction of the nth substance listed
Settings: Liquid, Vibrating tube method

CC(C)OC(C)C [diisopropyl ether] + CCCCCCO
mass density [kg/m3]
Settings | x1 = 0.1524 | x1 = 0.3196 | x1 = 0.4906 | x1 = 0.6974 | x1 = 0.8457
293.15 K, 100 kPa | 806.7 | 792.1 | 776.3 | 756.4 | 741.2
293.15 K, 500 kPa | 806.9 | 792.3 | 776.7 | 756.8 | 741.7
293.15 K, 1000 kPa | 807.2 | 792.7 | 777.1 | 757.3 | 742.2
293.15 K, 2000 kPa | 807.9 | 793.5 | 777.9 | 758.3 | 743.3
293.15 K, 5000 kPa | 810 | 795.7 | 780.4 | 761.1 | 746.4
293.15 K, 10000 kPa | 813.4 | 799.5 | 784.5 | 765.7 | 751.4
293.15 K, 15000 kPa | 816.6 | 803 | 788.3 | 770 | 756.1
293.15 K, 20000 kPa | 819.7 | 806.4 | 792 | 774.1 | 760.5
293.15 K, 30000 kPa | 825.7 | 812.8 | 799 | 781.7 | 768.7
293.15 K, 40000 kPa | 831.2 | 818.6 | 805.3 | 788.6 | 776
293.15 K, 50000 kPa | 836.3 | 824.1 | 811.2 | 795 | 782.9
293.15 K, 60000 kPa | 841.3 | 829.4 | 816.8 | 801 | 789.3
293.15 K, 70000 kPa | 846.1 | 834.5 | 822.1 | 806.7 | 795.3
293.15 K, 80000 kPa | 850.4 | 839.1 | 827.1 | 812 | 800.8
293.15 K, 90000 kPa | 854.7 | 843.6 | 831.8 | 817.1 | 806.1
293.15 K, 100000 kPa | 858.8 | 848 | 836.3 | 822 | 811.2
293.15 K, 110000 kPa | 862.7 | 852 | 840.6 | 826.6 | 816
293.15 K, 120000 kPa | 866.5 | 856 | 844.8 | 830.9 | 820.5
293.15 K, 130000 kPa | 870.3 | 859.9 | 848.9 | 835.2 | 825
293.15 K, 140000 kPa | 873.7 | 863.5 | 852.6 | 839.2 | 829
313.15 K, 100 kPa | 791.5 | 776 | 759.1 | 737.8 | 721.4
313.15 K, 500 kPa | 791.8 | 776.3 | 759.5 | 738.2 | 721.9
313.15 K, 1000 kPa | 792.2 | 776.7 | 760 | 738.8 | 722.5
313.15 K, 2000 kPa | 793 | 777.6 | 761 | 739.9 | 723.8
313.15 K, 5000 kPa | 795.3 | 780.2 | 763.9 | 743.3 | 727.5
313.15 K, 10000 kPa | 799 | 784.3 | 768.4 | 748.4 | 733.2
313.15 K, 15000 kPa | 802.6 | 788.2 | 772.7 | 753.3 | 738.5
313.15 K, 20000 kPa | 806 | 791.9 | 776.8 | 757.8 | 743.4
313.15 K, 30000 kPa | 812.4 | 798.9 | 784.3 | 766.2 | 752.5
313.15 K, 40000 kPa | 818.5 | 805.4 | 791.4 | 773.9 | 760.8
313.15 K, 50000 kPa | 823.9 | 811.2 | 797.7 | 780.9 | 768.2
313.15 K, 60000 kPa | 829.3 | 817 | 803.8 | 787.5 | 775.1
313.15 K, 70000 kPa | 834.3 | 822.3 | 809.5 | 793.6 | 781.7
313.15 K, 80000 kPa | 839 | 827.3 | 814.7 | 799.3 | 787.7
313.15 K, 90000 kPa | 843.4 | 832 | 819.7 | 804.6 | 793.2
313.15 K, 100000 kPa | 847.8 | 836.6 | 824.6 | 809.8 | 798.7
313.15 K, 110000 kPa | 852 | 841 | 829.2 | 814.6 | 803.8
313.15 K, 120000 kPa | 855.9 | 845.2 | 833.6 | 819.3 | 808.7
313.15 K, 130000 kPa | 859.9 | 849.2 | 837.8 | 823.9 | 813.4
313.15 K, 140000 kPa | 863.6 | 853.2 | 841.9 | 828.2 | 817.9
333.15 K, 100 kPa | 775.6 | 759.2 | 741.1 | 718.3 | 700.6
333.15 K, 500 kPa | 776 | 759.6 | 741.6 | 718.8 | 701.3
333.15 K, 1000 kPa | 776.5 | 760.1 | 742.2 | 719.5 | 702.1
333.15 K, 2000 kPa | 777.4 | 761.1 | 743.3 | 720.8 | 703.6
333.15 K, 5000 kPa | 780 | 764 | 746.7 | 724.7 | 707.9
333.15 K, 10000 kPa | 784.2 | 768.7 | 751.8 | 730.6 | 714.5
333.15 K, 15000 kPa | 788.1 | 773 | 756.7 | 736.1 | 720.6
333.15 K, 20000 kPa | 791.8 | 777.1 | 761.2 | 741.3 | 726.2
333.15 K, 30000 kPa | 798.8 | 784.8 | 769.6 | 750.7 | 736.4
333.15 K, 40000 kPa | 805.4 | 791.9 | 777.3 | 759.3 | 745.6
333.15 K, 50000 kPa | 811.3 | 798.3 | 784.2 | 766.8 | 753.8
333.15 K, 60000 kPa | 817 | 804.4 | 790.7 | 773.8 | 761.2
333.15 K, 70000 kPa | 822.4 | 810.1 | 796.8 | 780.5 | 768.3
333.15 K, 80000 kPa | 827.3 | 815.4 | 802.4 | 786.6 | 774.7
333.15 K, 90000 kPa | 832.2 | 820.4 | 807.8 | 792.4 | 780.8
333.15 K, 100000 kPa | 836.8 | 825.3 | 813 | 797.9 | 786.7
333.15 K, 110000 kPa | 841.1 | 829.8 | 817.8 | 803 | 792
333.15 K, 120000 kPa | 845.5 | 834.4 | 822.6 | 808.1 | 797.4
333.15 K, 130000 kPa | 849.4 | 838.6 | 827 | 812.8 | 802.2
333.15 K, 140000 kPa | 853.4 | 842.8 | – | – | –
